Legend:
Assay type in all cases: in vivo
STEME: Stellaria media [1] = test: Pre-emergence herbicidal effect; conditions: application rate 320 g/ha, scored visually after 3 weeks, 100% = plants have died, 0% = like control plants
Excerpt: (§1) 1. Pre-Emergence Herbicidal Effect and Crop Plant Compatibility Seeds of monocotyledonous and dicotyledonous weed plants and crop plants are laid out in sandy loam soil in wood-fiber pots and covered with soil. The compounds of the invention, formulated in the form of wettable powders (WP) or as emulsion concentrates (EC), are then applied to the surface of the covering soil as aqueous suspension or emulsion at a water application rate equating to 600 to 800 L/ha with addition of 0.2% wetting agent. After the treatment, the pots are placed in a greenhouse and kept under good growth conditions for the trial plants. The damage to the test plants is scored visually after a test period of 3 weeks by comparison with untreated controls (herbicidal activity in percent (%): 100% activity=the plants have died, 0% activity=like control plants). [table]

VERPE: Veronica persica [2] = test: Pre-emergence herbicidal effect; conditions: application rate 320 g/ha, scored visually after 3 weeks, 100% = plants have died, 0% = like control plants
Excerpt: as §1

[3] = tested on: ECHCG: Echinochloa crus-galli; test: Pre-emergence herbicidal effect; conditions: application rate 320 g/ha, scored visually after 3 weeks, 100% = plants have died, 0% = like control plants
Excerpt: as §1

[4] = tested on: MATIN: Matricaria inodora; test: Pre-emergence herbicidal effect; conditions: application rate 320 g/ha, scored visually after 3 weeks, 100% = plants have died, 0% = like control plants
Excerpt: as §1

STEME: Stellaria media [5] = test: Post-emergence herbicidal effect; conditions: application rate 320 g/ha, treated at one-leaf stage, assessed visually after about 3 weeks, 100% = plants have died
Procedure: (§2) [table] 2. Post-Emergence Herbicidal Effect and Crop Plant Compatibility Seeds of monocotyledonous and dicotyledonous weed and crop plants are laid out in sandy loam soil in wood-fiber pots, covered with soil and cultivated in a greenhouse under good growth conditions. 2 to 3 weeks after sowing, the test plants are treated at the one-leaf stage. The compounds of the invention, formulated in the form of wettable powders (WP) or as emulsion concentrates (EC), are then sprayed onto the green parts of the plants as aqueous suspension or emulsion at a water application rate equating to 600 to 800 L/ha with addition of 0.2% wetting agent. After the test plants have been left to stand in the greenhouse under optimal growth conditions for about 3 weeks, the action of the preparations is assessed visually in comparison to untreated controls (herbicidal action in percent (%): 100% activity=the plants have died, 0% activity=like control plants).

VERPE: Veronica persica [6] = test: Post-emergence herbicidal effect; conditions: application rate 320 g/ha, treated at one-leaf stage, assessed visually after about 3 weeks, 100% = plants have died
Procedure: as §2

VIOTR: Viola tricolor = test: Post-emergence herbicidal effect; conditions: application rate 320 g/ha, treated at one-leaf stage, assessed visually after about 3 weeks, 100% = plants have died
Procedure: as §2

[7] = tested on: POLCO: Polygonum convolvulus; test: Pre-emergence herbicidal effect; conditions: application rate 320 g/ha, scored visually after 3 weeks, 100% = plants have died, 0% = like control plants
Excerpt: as §1

SETVI: Setaria viridis = test: Pre-emergence herbicidal effect; conditions: application rate 320 g/ha, scored visually after 3 weeks, 100% = plants have died, 0% = like control plants
Excerpt: as §1

[8] = tested on: ALOMY: Alopecurus myosuroides; test: Pre-emergence herbicidal effect; conditions: application rate 320 g/ha, scored visually after 3 weeks, 100% = plants have died, 0% = like control plants
Excerpt: as §1

Structure (SMILES) | Herbicidal activity with respect to [%] STEME (STEME: Stellaria media [1]) | Herbicidal activity with respect to [%] VERPE (VERPE: Veronica persica [2]) | Herbicidal activity with respect to [%] MATIN [4] | Herbicidal activity with respect to [%] VERPE (VERPE: Veronica persica [6]) | Herbicidal activity with respect to [%] VIOTR (VIOTR: Viola tricolor) | other results
CC(C)(C)c1nnc(NC2CCOc3ccccc32)nc1N (racemic) [Example 1.8] | 80% | 100% | – | – | – | –
Clc1nnc(NC2CCCc3ccccc32)nc1NC1CC1 (racemic) [Example 1.10] | 80% | – | – | – | – | –
Clc1nnc(NC2CCOc3ccccc32)nc1NC1CC1 (racemic) [Example 1.14] | 90% | – | – | – | – | –
CNC(=O)c1nnc(NC2CCc3ccccc32)nc1N (racemic) [Example 1.35] | – | 100% | – | – | – | –
Nc1nc(NC2COc3ccccc32)nnc1C(F)(F)F (racemic) [Example 1.48] | 100% | 100% | 100% | 80% | – | Herbicidal activity with respect to [%] ECHCG [3]: 100%; Herbicidal activity with respect to [%] STEME (STEME: Stellaria media [5]): 100%
N#Cc1nnc(NC2CCCc3cc(F)ccc32)nc1N (racemic) [Example 1.63] | 100% | – | – | – | – | –
Nc1nc(NC2c3ccccc3CC2O)nnc1C(F)(F)F (racemic) [Example 1.84] | 100% | 100% | – | 80% | 90% | –
Cc1ccc2c(c1)[C@H](Nc1nnc(Cl)c(NC3CC3)n1)[C@@H](C)C2 [Example 1.2] | 100% | 100% | 90% | – | – | –
CC(C)(C)c1nnc(N[C@@H]2CCCc3ccccc32)nc1N [Example 1.5] | – | 100% | 90% | 80% | – | –
Cc1ccc2c(c1)[C@H](Nc1nnc(C(C)(C)C)c(N)n1)[C@@H](C)C2 [Example 1.6] | – | 100% | 90% | 80% | 80% | –
CC(C)(C)c1nnc(N[C@@H]2CCc3ccccc32)nc1N [Example 1.7] | – | 100% | 90% | 90% | – | –
CC(=O)c1nnc(N[C@@H]2CCc3ccccc32)nc1N [Example 1.29, 1-[5-Amino-3-[(1R)-2,3-dihydro-1H-inden-1-ylamino]-1,2,4-triazin-6-yl]ethanone] | 90% | 90% | 100% | – | 80% | Herbicidal activity with respect to [%] POLCO [7]: 80%; Herbicidal activity with respect to [%] STEME (STEME: Stellaria media [5]): 90%
CC(=O)c1nnc(N[C@@H]2CCCc3ccccc32)nc1N [Example 1.30] | 100% | 100% | 100% | 80% | – | Herbicidal activity with respect to [%] ECHCG [3]: 80%; Herbicidal activity with respect to [%] POLCO [7]: 100%; Herbicidal activity with respect to [%] STEME (STEME: Stellaria media [5]): 80%
CCOC(=O)c1nnc(N[C@@H]2CCc3ccccc32)nc1N [Example 1.33] | 100% | 100% | 100% | 80% | – | Herbicidal activity with respect to [%] ECHCG [3]: 80%; Herbicidal activity with respect to [%] POLCO [7]: 100%
CNC(=O)c1nnc(N[C@@H]2CCCc3ccccc32)nc1N [Example 1.34, 5-Amino-N-methyl-3-[(1R)-1,2,3,4-tetrahydronaphthalen-1-ylamino]-1,2,4-triazine-6-carboxamide] | – | – | – | 90% | – | –
N#Cc1nnc(N[C@@H]2CCc3ccccc32)nc1N [Example 1.38] | 100% | 100% | – | – | 90% | Herbicidal activity with respect to [%] ECHCG [3]: 80%

Structure (SMILES) | Herbicidal activity with respect to [%] STEME (STEME: Stellaria media [1]) | Herbicidal activity with respect to [%] VERPE (VERPE: Veronica persica [2]) | Herbicidal activity with respect to [%] MATIN [4] | Herbicidal activity with respect to [%] VERPE (VERPE: Veronica persica [6]) | Herbicidal activity with respect to [%] VIOTR (VIOTR: Viola tricolor) | other results
CCOC(=O)CCNC(=O)c1nnc(N[C@H]2c3cc(C)ccc3C[C@@H]2C)nc1N [Example 1.42] | 100% | 80% | – | – | – | –
CCOC(=O)CNC(=O)c1nnc(N[C@H]2c3cc(C)ccc3C[C@@H]2C)nc1N [Example 1.43] | 100% | 100% | 100% | 80% | 80% | –
CCCS(=O)(=O)NC(=O)c1nnc(N[C@H]2c3cc(C)ccc3C[C@@H]2C)nc1N [Example 1.53] | 100% | 100% | – | 80% | – | –
Cc1ccc2c(c1)[C@H](Nc1nnc(C(=O)NS(=O)(=O)c3ccccc3)c(N)n1)[C@@H](C)C2 [Example 1.55] | 100% | 90% | – | 80% | 80% | –
Cc1ccc2c(c1)[C@H](Nc1nnc(C(=O)NS(=O)(=O)c3ccc([N+](=O)[O-])cc3)c(N)n1)[C@@H](C)C2 [Example 1.56] | 100% | 100% | – | – | – | –
Cc1ccc2c(c1)[C@H](Nc1nnc(C(=O)NS(=O)(=O)C(F)(F)F)c(N)n1)[C@@H](C)C2 [Example 1.57] | 100% | 100% | – | 80% | – | –
Cc1ccc2c(c1)[C@@H](Nc1nnc(C#N)c(N)n1)CC2 [Example 1.61] | 80% | – | – | – | – | –
CCOC(=O)c1nnc(N[C@@H]2CCc3ccc(C)cc32)nc1N [Example 1.74] | – | – | 100% | – | – | Herbicidal activity with respect to [%] SETVI (SETVI: Setaria viridis): 100%; Herbicidal activity with respect to [%] ECHCG [3]: 100%; Herbicidal activity with respect to [%] ALOMY [8]: 80%; Herbicidal activity with respect to [%] POLCO [7]: 100%; Herbicidal activity with respect to [%] STEME (STEME: Stellaria media [5]): 100%
Cc1ccc2c(c1)[C@H](Nc1nnc(C(=O)O)c(N)n1)CC2 [Example 1.75] | – | – | – | – | – | Herbicidal activity with respect to [%] STEME (STEME: Stellaria media [5]): 100%
Cc1ccc2c(c1)[C@H](Nc1nnc(-c3ccc(Cl)cc3)c(N)n1)[C@@H](C)C2 [Example 1.79, 6-(4-Chlorophenyl)-N^3-[(1R,2S)-2,6-dimethyl-2,3-dihydro-1H-inden-1-yl]-1,2,4-triazine-3,5-diamine] | 100% | 100% | – | – | – | –
C=Cc1nnc(N[C@H]2c3cc(C)ccc3C[C@@H]2C)nc1N [Example 1.80] | 100% | 100% | – | – | 100% | –
C=C(c1nnc(N[C@H]2c3cc(C)ccc3C[C@@H]2C)nc1N)C(F)(F)F [Example 1.81] | 100% | 100% | 100% | – | 80% | Herbicidal activity with respect to [%] ECHCG [3]: 100%; Herbicidal activity with respect to [%] POLCO [7]: 100%
Nc1nc(NC2c3ccccc3CC2O)nnc1C(F)(F)F (stereo not drawn) [Example 1.82] | – | – | 100% | – | – | Herbicidal activity with respect to [%] SETVI (SETVI: Setaria viridis): 100%; Herbicidal activity with respect to [%] POLCO [7]: 100%
CS(=O)(=O)c1nnc(NC2c3ccccc3CC2O)nc1N (stereo not drawn) [Example 1.87] | 100% | 90% | – | – | – | –
Cc1ccc2c(c1)[C@H](Nc1nnc(C(C)O)c(N)n1)[C@@H](C)C2 (stereo partly drawn) [Example 1.103] | 100% | 100% | 100% | 90% | 90% | Herbicidal activity with respect to [%] ECHCG [3]: 100%; Herbicidal activity with respect to [%] POLCO [7]: 100%; Herbicidal activity with respect to [%] STEME (STEME: Stellaria media [5]): 80%
Cc1ccc2c(c1)[C@H](Nc1nnc(C(C)(C)O)c(N)n1)[C@@H](C)C2 [Example 1.105] | 100% | 100% | 100% | 80% | 90% | Herbicidal activity with respect to [%] ECHCG [3]: 100%; Herbicidal activity with respect to [%] POLCO [7]: 100%

— patent publication US10743540B2, “3-amino-1,2,4-triazine derivatives and their use for controlling undesired plant growth” (BAYER CROPSCIENCE AKTIENGESELLSCHAFT, priority 2016, dated 2020)
